Measured values published in patent US5017723A, “Substituted ethylamines, their preparation process, their use as medicine and their synthesising agents” (Jouveinal S.A., priority 1990, dated 1991).
Read-outs that look alike come from different tables or passages of the source.

How the values were obtained:
[1] = test system: convulsion induced by picrotoxine in mice; test: Protection against picrotoxine-induced convulsion (suppression of the tonic extension phase); type: in vivo, male Swiss mice; conditions: Mus musculus
Description: The psychotropic properties of the compounds have been determined by the protection of the induced convulsion by picrotoxine for mice, which is achieved by the method derived from that of Krall et al., "Epilepsia", 1978, 19, p. 409-428.
The administration of picrotoxine caused a convulsive crisis in the animal characterised by a myoclonic extension syndrome followed by the extension of the limbs causing the animal to die. Certain substances, particularly those active on the complex GABA/benzodiazepines/Cl-ionophore makes it possible to protect the animals from this convulsive crisis.
In practice the study is carried out on batches of 10 male "Swiss" mice weighing approximately 20 g, which are administered with the product to be studied in aqueous solution either by intraperitoneal route (i.p.) at the rate of 50 mg/kg and in a volume of 0.2 ml of solution per animal, or by oral route (p.o) in a volume of 2.0 ml of solution per animal.
An injection of a solution of picrotoxine at the rate of 24 mg/kg in a volume of 0.2 ml per animal is then administered by interperitoneal route, either 30 minutes after administering the product by interperitoneal route or 60 minutes after administering the product by oral route. The dose of the product injected causing a clonic crisis, which results in untreated animals dying. The suppression of the extension tonic phase in the animals treated under the conditions of the test is observed. The results are expressed:
either in percentages of protected animals of this phase to the reaction of 50 mg/kg of the compound of the study administered by i.p. route or 100 mg/kg by p.o route,
or in DE50 for each of these routes, which is the efficient dosage of the test compound expressed in mg/kg protecting 50% of the animals of this extension phase. The significant value of the results being generally indicated in the following manner:
* Significant result at p<0.05
** Significant result at p<0.01
*** Significant highly significant at p<0.001.

[2] = target: opiated mu receptor (Cavia porcellus, UniProt A0ACM8Q262); type: binding, guinea pig; conditions: inhibition of 50% of radioligand bonds; read-out: CI50 affinity mu rec.
opiated mu receptor (Cavia porcellus, UniProt A0ACM8Q262), sequence (A0ACM8Q262 1-400): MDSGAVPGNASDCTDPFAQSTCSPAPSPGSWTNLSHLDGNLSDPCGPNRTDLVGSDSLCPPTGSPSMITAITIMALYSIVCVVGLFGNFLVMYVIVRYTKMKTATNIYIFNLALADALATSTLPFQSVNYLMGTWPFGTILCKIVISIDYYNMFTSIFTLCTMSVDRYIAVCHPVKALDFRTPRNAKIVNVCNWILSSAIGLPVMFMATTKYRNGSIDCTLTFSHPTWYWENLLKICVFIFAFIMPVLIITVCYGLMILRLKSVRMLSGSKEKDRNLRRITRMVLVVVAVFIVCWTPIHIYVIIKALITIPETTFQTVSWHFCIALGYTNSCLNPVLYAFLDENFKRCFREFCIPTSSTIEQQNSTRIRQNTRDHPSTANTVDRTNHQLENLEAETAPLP
Procedure: (§1) The analysis is carried out in accordance with the technique described by F. Roman et al. in J. Pharm. Pharmcol. 1987, 39, p. 404-407 which consists of analysing the displacement of specific radioactive ligands of the opiated mu, delta and kappa sub receptors by the action of the test products on the membranous receptors of a guinea pig.

[3] = target: T1, opiated delta receptor (Cavia porcellus, UniProt A0A286XTF2); test: Displacement of specific radioactive ligands, opiated delta receptor; type: binding, guinea pig; conditions: inhibition of 50% of radioligand bonds; read-out: CI50 affinity delta rec.
T1 construct: membranous receptors of a guinea pig; from tissue
T1 sequence (A0A286XTF2 1-366): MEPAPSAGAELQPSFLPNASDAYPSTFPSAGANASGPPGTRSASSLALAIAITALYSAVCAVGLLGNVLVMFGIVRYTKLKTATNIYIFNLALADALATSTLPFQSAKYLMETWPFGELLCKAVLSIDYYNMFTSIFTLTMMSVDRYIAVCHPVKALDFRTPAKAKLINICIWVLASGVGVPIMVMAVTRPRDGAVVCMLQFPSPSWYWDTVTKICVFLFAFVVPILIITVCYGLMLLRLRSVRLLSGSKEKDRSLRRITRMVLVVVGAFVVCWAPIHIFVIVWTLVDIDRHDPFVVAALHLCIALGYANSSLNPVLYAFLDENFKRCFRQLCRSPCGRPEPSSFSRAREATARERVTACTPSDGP
Procedure: as §1

[4] = target: T2, opiated kappa receptor (Cavia porcellus, UniProt P41144); test: Displacement of specific radioactive ligands, opiated kappa receptor; type: binding, guinea pig; conditions: inhibition of 50% of radioligand bonds; read-out: CI50 affinity kappa rec.
T2 construct: membranous receptors of a guinea pig; from tissue
T2 sequence (P41144 whole entry): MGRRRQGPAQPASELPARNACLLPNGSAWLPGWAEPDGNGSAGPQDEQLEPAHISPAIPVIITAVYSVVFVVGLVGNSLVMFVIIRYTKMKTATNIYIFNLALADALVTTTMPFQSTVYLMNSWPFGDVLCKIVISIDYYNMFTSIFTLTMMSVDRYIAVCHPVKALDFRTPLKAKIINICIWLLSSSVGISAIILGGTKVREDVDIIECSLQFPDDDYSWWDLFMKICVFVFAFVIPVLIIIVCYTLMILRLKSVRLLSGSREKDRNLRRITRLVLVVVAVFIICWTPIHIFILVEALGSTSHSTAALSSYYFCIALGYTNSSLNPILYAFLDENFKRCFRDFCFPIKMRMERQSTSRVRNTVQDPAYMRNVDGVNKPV
Procedure: as §1

[5] = test system: bladder of the rat; test: Transvesical cystomanometry on wide awake rat (urological activity); type: in vivo, female rat; conditions: for change in vivo at 1 mg/kg: Rattus norvegicus, iv, 1,0 mg/kg i.v.; for activity on the urinary tract compared to the reference compounds (in words): compared to Dicyclomine and Baclofen
Procedure: Studies by a similar method of operation, the compounds of the invention (I.A) which show a mu and kappa affinity also have an activity on certain functional parameters of the bladder of the rat which justifies their interest in the treatment of dysfunctions in the urinary tract.
The study carried out consists of transvesical cystomanometry on a wide awake rat. The following was measured during the storage and emission phases of urine under continuous intervesical perfusion of sterile physiological serum:
the "threshold pressure", which is the intervesical pressure immediately preceding the contraction phase of the detrusor
the volume of each urinary emission.
The technique used in the female rat consisted of preparing the animals 48 hours before the actual experiment by effecting the implantation of two catheters in the apex of the bladder and one catheter in the left-hand jugular vein under anaesthetic, with the external end of these catheters being protected and held by a sticking plaster corset.
The animals were placed in suitable cages at the time of the test, which were equipped so as to collect and measure the urine. For each animal one vesical catheter was connected to a pressure sensor, the other to a perfusor which supplied 0.2 ml/min. of sterile physiological serum continuously.
The intravesical pressure was measured continuously during the perfusion and it was possible to observe:
a filling phase of the bladder during which the pressure increased progressively,
a sudden rising phase of this pressure during the contraction of the detrusor: the "threshold" pressure which is the pressure observed just before the pressure of the contraction phase. This threshold pressure was raised in the same way as the urinary volume at each urination.
The study consisted of observing the changes in these parameters by the action of the products (IA) which were administered in solution by intravenous route by means of the catheter placed in the left jugular vein.
Dicyclomine and Baclofen which have been considered for the treatment of hyperactive bladders (Drugs of Today, Vol. 24, no. 5, 1988, p. 337-348) were also used in this test in the form of comparison products.

[6] = test system: opiated mu receptor; type: binding, guinea pig; conditions: opiated receptors, compared with morphine
Procedure: as §1

[7] = read-out: % variation pressure threshold

| Structure (SMILES) | responders at 100 mg/kg ([1]; po, 1 h, read-out: p.o.: % prot. (percentage of protected animals), 100 mg/kg p.o., picrotoxine 24 mg/kg i.p. 60 min later, * p<0.05, ** p<0.01, *** p<0.001) | IC50 [2] | IC50 [3] | IC50 [4] | change in vivo at 1 mg/kg [5, 7] | change in vivo at 1 mg/kg ([5]; read-out: % variation volume) | activity on the urinary tract compared to the reference compounds (in words) [5] | affinity with the receptors compared with morphine (in words) [6] | ED50 ([1]; ip, read-out: i.p.: DE50) | ED50 ([1]; po, read-out: p.o.: DE50) |
| --- | --- | --- | --- | --- | --- | --- | --- | --- | --- | --- |
| CCC(CC=Cc1ccc(Cl)c(Cl)c1)(c1ccccc1)N(C)C (stereo not drawn) [Example 36, a-(3',4'-dichloro)cinnamyl-N,N-dimethyl-a-ethyl-benzylamine] | 100% | 90 nM | 680 nM | 220 nM | 125% | 36% | important activity |  |  |  |
| CCC(CC=Cc1ccc(Cl)c(Cl)c1)(c1ccc(Cl)cc1)N(C)C (stereo not drawn) [Example 43, a-(3',4' dichloro) cinnamyl-N,N-dimethyl-a-ethyl-p.chlorobenzylamine] |  | 16 nM | 434 nM | 197 nM | 109% | 91% | important activity | same order of intensity as the reference products |  |  |
| CCC(CC=Cc1ccc(Cl)c(Cl)c1)(c1ccc(C)cc1)N(C)C (stereo not drawn) [Example 44, a-(3',4'-dichloro) cinnamyl-N,N-dimethyl-a-ethyl-p.methylbenzylamine] |  | 4 nM | 223 nM | 110 nM |  |  | important activity | same order of intensity as the reference products | 21.4 mg/kg | 23.9 mg/kg |
| CCC(CC=Cc1ccc(Cl)c(Cl)c1)(c1ccc(OC)cc1)N(C)C (stereo not drawn) [Example 46, a-(3',4'-dichloro)cinnamyl-N,N-dimethyl-a-ethyl-p.metoxybenzylamine] |  | 12 nM | 260 nM | 235 nM | 111% | 44% | important activity | same order of intensity as the reference products | 29.8 mg/kg | 35.4 mg/kg |
